In patent publication US20250214925A1, “CATIONIC LIPID, LIPOSOME, LIPID NANOPARTICLE, AND USE” (CARCELL BIOPHARMA LTD., priority 2022, published 2025):

Columns and labels:
mice = assay: In vivo delivery of Ffluc mRNA LNP in mice, intravenous administration, luminescence relative to MC3; parameters: species or system mice (female Balb/C); conditions: fold change in luminescence intensity relative to MC3; 0.06 mg/kg tail vein; 6 h after injection
Procedure: The prepared encapsulation solution was applied to mice in the following manner, and its delivery efficiency in mice was tested. Among them, DLin-MC3-DMA (MC3) was a cationic liposome for delivering small nucleic acids that was approved by the FDA for marketing in 2018, which has high nucleic acid drug delivery efficiency and biosafety, and was usually used as the industry gold standard in the screening process of cationic lipids. In the evaluation of mice experiments, the ratio of nucleic acid delivery efficiency normalized to MC3 was greater than 0.1, which was considered to be a cationic lipid with high delivery efficiency.
1. The LNP solution was diluted with 50 mM TBS, pH 7.4 to a concentration of 0.1 mg/mL mRNA.
2. The mice involved in this study were female Balb/C, weighing 18-22 g, 6-8 weeks old, with 5 mice in each group.
3. The dosing solution was kept at 4° C. prior to injection.
4. Each mice received 0.06 mg/kg via tail vein injection.
5. The mice were injected intraperitoneally with 200 μL of 1.5 mg/mL D-luciferin solution 6 h after injection.
6. The in vivo luminescence images of the mice were obtained using the IVIS system (Aniview).
7. The luminescence intensity of each mice was measured using Aniview software.
8. MC3 lipid nanoparticles were used as a positive control. The in vivo efficacy of each cationic lipid tested was recorded as the fold change in luminescence intensity relative to MC3 (ratio normalized to MC3).

[1] = mRNA encapsulation efficiency of LNP by Ribogreen assay; assay type: physicochemical; conditions: LNP: 50% cationic lipid, 38.5% cholesterol, 10% DSPC, 1.5% DMG-PEG2000; Ffluc mRNA
Procedure: (§1) 1. The cationic lipid (50 mg/mL) prepared in the above examples of the present disclosure, cholesterol (20 mg/mL), DSPC (20 mg/mL) and DMG-PEG2000 (20 mg/mL) were dissolved in ethanol, and the solution was placed in a 55° C. metal thermostatic bath as needed to aid dissolution, to obtain a lipid mixture with the following molar composition: 1.5% DMG-PEG2000, 50% cationic lipid, 38.5% cholesterol, and 10% DSPC.
(§2) 2. The mRNA encoding Ffluc was diluted with 10 mM pH 4.0 citrate buffer to prepare a 0.2 mg/mL mRNA solution.
(§3) 3. The lipid mixture prepared in step 1 was mixed with the mRNA solution prepared in step 2 using a syringe pump with a tee at a total flow rate of 40 mL/min.
(§4) 4. The LNP mixture was collected after the three-way mixing and placed in a dialysis bag with a molecular weight cut-off of 100 KDa.
(§5) 5. The LNP mixture was dialyzed overnight against 50 mM Tris-buffered saline, pH 7.4.
(§6) 6. Sieving, and subsequent measurement of the sieved LNP to measure the PDI of the LNP by dynamic laser light scattering; to measure the mRNA encapsulation efficiency and concentration by Ribogreen assay; and to measure the pKa by TNS-α assay.

[2] = LNP size and PDI by dynamic laser light scattering; assay type: physicochemical; conditions: LNP: 50% cationic lipid, 38.5% cholesterol, 10% DSPC, 1.5% DMG-PEG2000; Ffluc mRNA
Procedure: as §1, §2, §3, §4, §5, §6

Row | Molecule | In Vivo Efficacy Normalized To Mc3 In Mice (Intravenous Injection) (mice) | Encapsulation Rate [1] | PDI [2] | Size (nm) [2]
1 | 3-((((2-(dimethylamino)ethoxy)carbonyl)oxy)-2-((((E)-3-hexylundec-2-enoyl)oxy)methyl)propyl(97,127)-octadeca-9,12-dienoate [CPL-203] | 0.23 |  |  | 
2 | CCCCC/C=C\C/C=C\CCCCCCCC(=O)OCC(COC(=O)C=C(CCCCCCCCC)CCCCCCCCC)COC(=O)OCCCN(CC)CC (stereo not drawn) [CPL-001-01, 3-(((3-(diethylamino)propoxy)carbonyl)oxy)-2-(((3-nonyldodec-2-enoyl)oxy)methyl)propyl(9Z,12Z)-octadeca-9,12-dienoate] | 2.00 | 96% | 0.0594 | 62.9 nm
3 | CCCCCCCC/C(=C/C(=O)OCCCCCN(CCCCO)CCCCCOC(=O)/C=C(\CCCCCC)CCCCCCCC)CCCCCC [CPL-003, ((4-hydroxybutyl)azanediyl)bis(pentane-5,1-diyl)(2E,2′E)-bis(3-hexylundec-2-enoate)] | 1.55 | 92% | 0.205 | 98 nm
4 | CCCCCCC/C(=C/C(=O)OCCCCN(CCCO)CCCCOC(=O)/C=C(\CCCCCC)CCCCCCC)CCCCCC [CPL-031, ((3-hydroxypropyl)azanediyl)bis(butane-4,1-diyl) (2E,2′E)-bis(3-hexyldec-2-enoate)] | 0.75 | 94% | 0.2448 | 92.39 nm
5 | CCCCCCCC/C(=C\C(=O)OCCCCN(CCCO)CCCCOC(=O)/C=C(/CCCCCCC)CCCCCCCC)CCCCCCC [CPL-032, ((3-hydroxypropyl)azanediyl)bis(butane-4,1-diyl)(2Z,2′Z)-bis(3-heptylundec-2-enoate)] | 1.18 | 91% | 0.1692 | 90.11 nm
6 | CCCCCCCC/C(=C/C(=O)OCCCCCN(CCCO)CCCCCOC(=O)/C=C(\CCC)CCCCCCCC)CCC [CPL-039, ((3-hydroxypropyl)azanediyl)bis(pentane-5,1-diyl)(2E,2′E)-bis(3-propylundec-2-enoate)] | 1.44 | 94% | 0.2202 | 97.61 nm
7 | CCCCCCCC/C(=C/C(=O)OCCCCCN(CCCO)CCCCCOC(=O)/C=C(\CCCC)CCCCCCCC)CCCC [CPL-043, ((3-hydroxypropyl)azanediyl)bis(pentane-5,1-diyl)(2E,2′E)-bis(3-butylundec-2-enoate)] | 1.58 | 95% | 0.1723 | 77.48 nm
8 | CCCCC/C=C\C/C=C\CCCCCCCC(=O)OCC(COC(=O)/C=C(\CCCCCCC)CCCCCCCC)COC(=O)OCCN(C)C (stereo not drawn) [CPL-208, 3-(((2-(dimethylamino)ethoxy)carbonyl)oxy)-2-((((E)-3-heptylundec-2-enoyl)oxy)methyl)propyl(9Z,12Z)-octadeca-9,12-dienoate] |  | 95% | 0.2382 | 96.3 nm
9 | CCCCC/C=C\C/C=C\CCCCCCCC(=O)OCC(COC(=O)C=C(CCCCCCCCCC)CCCCCCCCCC)COC(=O)OCCCN(C)C (stereo not drawn) [CPL-234, 3-((3-decyltridec-2-enoyl)oxy)-2-((((3-(dimethylamino)propoxy)carbonyl)oxy)methyl)propyl(9Z,12Z)-octadeca-9,12-dienoate] | 0.96 |  |  | 
10 | CCCCC/C=C\C/C=C\CCCCCCCC(=O)OCC(COC(=O)/C=C(\CCC)CCCCCC)COC(=O)OCCC1CCN(C)CC1 (stereo not drawn) [CPL-280, 3-(((2-(1-methylpiperidin-4-yl)ethoxy)carbonyl)oxy)-2-((((E)-3-propylnon-2-enoyl)oxy)methyl)propyl(9Z,12Z)-octadeca-9,12-dienoate] |  | 97% | 0.2607 | 119.6 nm
11 | CCCCC/C=C\C/C=C\CCCCCCCC(=O)OCC(COC(=O)/C=C(\CCCCC)CCCCCCCC)COC(=O)OCCC1CCN(C)CC1 (stereo not drawn) [CPL-289, 3-(((2-(1-methylpiperidin-4-yl)ethoxy)carbonyl)oxy)-2-((((E)-3-pentylundec-2-enoyl)oxy)methyl)propyl(9Z,12Z)-octadeca-9,12-dienoate] |  | 97% | 0.1371 | 83 nm
12 | CCCCC/C=C\C/C=C\CCCCCCCC(=O)OCC(COC(=O)/C=C(\CCCCC)CCCCCCCCCC)COC(=O)OCCC1CCN(C)CC1 (stereo not drawn) [CPL-290] |  | 98% | 0.1615 | 105.5 nm
13 | CCCCC/C=C\C/C=C\CCCCCCCC(=O)OCC(COC(=O)/C=C(\CCCC)CCCCC)COC(=O)OCC(C)(C)CN(C)C (stereo not drawn) [CPL-309, 3-(((E)-3-butyloct-2-enoyl)oxy)-2-((((3-(dimethylamino)-2,2-dimethylpropoxy)carbonyl)oxy)methyl)propyl(9Z,12Z)-octadeca-9,12-dienoate] |  | 93% | 0.0937 | 76.44 nm
14 | CCCCC/C=C\C/C=C\CCCCCCCC(=O)OCC(COC(=O)/C=C(\CCCC)CCCCCCC)COC(=O)OCC(C)(C)CN(C)C (stereo not drawn) [CPL-316, 3-(((E)-3-butyldec-2-enoyl)oxy)-2-((((3-(dimethylamino)-2,2-dimethylpropoxy)carbonyl)oxy)methyl)propyl(9Z,12Z)-octadeca-9,12-dienoate] |  | 93% | 0.1387 | 75.82 nm
15 | CCCCC/C=C\C/C=C\CCCCCCCC(=O)OCC(COC(=O)C=C(CCCCCCCCCC)CCCCCCCCCC)COC(=O)OCC(C)(C)CN(C)C (stereo not drawn) [CPL-322, 3-((3-decyltridec-2-enoyl)oxy)-2-((((3-(dimethylamino)-2,2-dimethylpropoxy)carbonyl)oxy)methyl)propyl(9Z,12Z)-octadeca-9,12-dienoate] |  | 94% | 0.1302 | 96.21 nm
16 | CCCCC/C=C\C/C=C\CCCCCCCC(=O)OCC(COC(=O)/C=C(\CCCCC)CCCCCC)COC(=O)OCCCN1CCN(C)CC1 (stereo not drawn) [CPL-398, 3-(((3-(4-methylpiperazin-1-yl)propoxy)carbonyl)oxy)-2-((((E)-3-pentylnonan-2-enoyl)oxy)methyl)propyl(9Z,12Z)-octadeca-9,12-dienoate] |  | 97% | 0.0778 | 115.7 nm
17 | CCCCC/C=C\C/C=C\CCCCCCCC(=O)OCC(COC(=O)/C=C(/CCCCCCCC)CCCCCCCCCC)COC(=O)OCCCN1CCN(C)CC1 (stereo not drawn) [CPL-409, 3-(((3-(4-methylpiperazin-1-yl)propoxy)carbonyl)oxy)-2-((((Z)-3-octyltridec-2-enoyl)oxy)methyl)propyl(9Z 12Z)-octadeca-9,12-dienoate] |  | 96% | 0.1474 | 94.97 nm
18 | CCCCCC/C(=C/C(=O)OCCCCCCCCN(CCO)CCCCCCCCOC(=O)/C=C(\CCCC)CCCCCC)CCCC [CPL-455-01, ((2-hydroxyethyl)azanediyl)bis(octane-8,1-diyl) (2E,2′E)-bis(3-butylnon-2-enoate)] |  | 85% | 0.1065 | 69.76 nm
19 | CCCCCCCCCC/C(=C/C(=O)OCCCCCN(CCCO)CCCCCOC(=O)/C=C(\CCCC)CCCCCCCCCC)CCC [CPL-1092] | 0.83 |  |  | 
